Numbers after ± are expanded uncertainties.
Experiment: xn = mol fraction of the nth substance listed
Settings: Liquid, Vibrating tube method

Compound `CCCCCCCCCCC` [undecane] + CCCCCCC has a mass density (342.97 K, 1001 kPa, x2 = 0.9511) of 645.7 ± 0.3 kg/m3, a mass density (342.97 K, 2000 kPa, x2 = 0.9511) of 647 ± 0.3 kg/m3 and a mass density (342.97 K, 3000 kPa, x2 = 0.9511) of 648.4 ± 0.3 kg/m3. The mass density (342.97 K, 4000 kPa, x2 = 0.9511) was 649.7 ± 0.3 kg/m3, the mass density (342.97 K, 5000 kPa, x2 = 0.9511) was 650.9 ± 0.3 kg/m3 and the mass density (342.97 K, 6000 kPa, x2 = 0.9511) was 652.2 ± 0.3 kg/m3. The mass density (342.97 K, 7000 kPa, x2 = 0.9511) was 653.4 ± 0.3 kg/m3, the mass density (342.97 K, 8000 kPa, x2 = 0.9511) was 654.6 ± 0.3 kg/m3 and the mass density (342.97 K, 9000 kPa, x2 = 0.9511) was 655.8 ± 0.3 kg/m3. The mass density (342.97 K, 10000 kPa, x2 = 0.9511) was 657 ± 0.4 kg/m3, the mass density (342.97 K, 11000 kPa, x2 = 0.9511) was 658.1 ± 0.4 kg/m3 and the mass density (342.97 K, 12000 kPa, x2 = 0.9511) was 659.2 ± 0.4 kg/m3. It also gave a mass density (342.97 K, 13000 kPa, x2 = 0.9511) of 660.3 ± 0.4 kg/m3, a mass density (342.97 K, 14001 kPa, x2 = 0.9511) of 661.4 ± 0.4 kg/m3 and a mass density (342.97 K, 15001 kPa, x2 = 0.9511) of 662.5 ± 0.4 kg/m3. For the same compound, the mass density (342.97 K, 16000 kPa, x2 = 0.9511) was 663.5 ± 0.4 kg/m3, the mass density (342.97 K, 17001 kPa, x2 = 0.9511) was 664.5 ± 0.4 kg/m3 and the mass density (342.97 K, 18001 kPa, x2 = 0.9511) was 665.6 ± 0.4 kg/m3. The mass density (342.97 K, 19000 kPa, x2 = 0.9511) was 666.6 ± 0.4 kg/m3, the mass density (342.97 K, 20000 kPa, x2 = 0.9511) was 667.5 ± 0.4 kg/m3 and the mass density (342.97 K, 21001 kPa, x2 = 0.9511) was 668.5 ± 0.5 kg/m3. The mass density (342.97 K, 22000 kPa, x2 = 0.9511) was 669.4 ± 0.5 kg/m3, the mass density (342.97 K, 23001 kPa, x2 = 0.9511) was 670.4 ± 0.5 kg/m3 and the mass density (342.97 K, 24000 kPa, x2 = 0.9511) was 671.3 ± 0.5 kg/m3. It also gave a mass density (342.97 K, 25000 kPa, x2 = 0.9511) of 672.2 ± 0.5 kg/m3, a mass density (343.01 K, 2001 kPa, x2 = 0.5063) of 680.1 ± 0.3 kg/m3 and a mass density (343.01 K, 3000 kPa, x2 = 0.5063) of 681.2 ± 0.3 kg/m3. The mass density (343.01 K, 4000 kPa, x2 = 0.5063) was 682.3 ± 0.3 kg/m3, the mass density (343.01 K, 5000 kPa, x2 = 0.5063) was 683.4 ± 0.3 kg/m3 and the mass density (343.01 K, 6000 kPa, x2 = 0.5063) was 684.5 ± 0.3 kg/m3. It also gave a mass density (343.01 K, 7000 kPa, x2 = 0.5063) of 685.5 ± 0.3 kg/m3, a mass density (343.01 K, 8001 kPa, x2 = 0.5063) of 686.5 ± 0.3 kg/m3 and a mass density (343.01 K, 9000 kPa, x2 = 0.5063) of 687.6 ± 0.3 kg/m3. It also gave a mass density (343.01 K, 10000 kPa, x2 = 0.5063) of 688.6 ± 0.3 kg/m3, a mass density (343.01 K, 11000 kPa, x2 = 0.5063) of 689.5 ± 0.3 kg/m3 and a mass density (343.01 K, 12000 kPa, x2 = 0.5063) of 690.5 ± 0.3 kg/m3. For the same compound, the mass density (343.01 K, 13000 kPa, x2 = 0.5063) was 691.5 ± 0.4 kg/m3, the mass density (343.01 K, 14000 kPa, x2 = 0.5063) was 692.4 ± 0.4 kg/m3 and the mass density (343.01 K, 15000 kPa, x2 = 0.5063) was 693.4 ± 0.4 kg/m3. It also gave a mass density (343.01 K, 16000 kPa, x2 = 0.5063) of 694.3 ± 0.4 kg/m3, a mass density (343.01 K, 17001 kPa, x2 = 0.5063) of 695.2 ± 0.4 kg/m3 and a mass density (343.01 K, 18000 kPa, x2 = 0.5063) of 696.1 ± 0.4 kg/m3. For the same compound, the mass density (343.01 K, 19000 kPa, x2 = 0.5063) was 697 ± 0.4 kg/m3, the mass density (343.01 K, 20000 kPa, x2 = 0.5063) was 697.8 ± 0.4 kg/m3 and the mass density (343.01 K, 21001 kPa, x2 = 0.5063) was 698.7 ± 0.4 kg/m3. It also gave a mass density (343.01 K, 22050 kPa, x2 = 0.5063) of 699.5 ± 0.4 kg/m3, a mass density (343.01 K, 23000 kPa, x2 = 0.5063) of 700.4 ± 0.4 kg/m3 and a mass density (343.01 K, 24000 kPa, x2 = 0.5063) of 701.2 ± 0.4 kg/m3. The mass density (343.01 K, 25000 kPa, x2 = 0.5063) was 702 ± 0.5 kg/m3, the mass density (343.02 K, 1001 kPa, x2 = 0.05) was 701.5 ± 0.3 kg/m3 and the mass density (343.02 K, 2001 kPa, x2 = 0.05) was 702.5 ± 0.3 kg/m3. For the same compound, the mass density (343.02 K, 3000 kPa, x2 = 0.05) was 703.6 ± 0.3 kg/m3, the mass density (343.02 K, 4000 kPa, x2 = 0.05) was 704.6 ± 0.3 kg/m3 and the mass density (343.02 K, 5000 kPa, x2 = 0.05) was 705.5 ± 0.3 kg/m3. The mass density (343.02 K, 6000 kPa, x2 = 0.05) was 706.5 ± 0.3 kg/m3, the mass density (343.02 K, 7000 kPa, x2 = 0.05) was 707.5 ± 0.3 kg/m3 and the mass density (343.02 K, 8001 kPa, x2 = 0.05) was 708.4 ± 0.3 kg/m3. For the same compound, the mass density (343.02 K, 9000 kPa, x2 = 0.05) was 709.3 ± 0.3 kg/m3, the mass density (343.02 K, 10000 kPa, x2 = 0.05) was 710.2 ± 0.3 kg/m3 and the mass density (343.02 K, 11000 kPa, x2 = 0.05) was 711.1 ± 0.3 kg/m3. It also gave a mass density (343.02 K, 12000 kPa, x2 = 0.05) of 712 ± 0.3 kg/m3, a mass density (343.02 K, 13000 kPa, x2 = 0.05) of 712.9 ± 0.3 kg/m3 and a mass density (343.02 K, 14000 kPa, x2 = 0.05) of 713.8 ± 0.4 kg/m3. For the same compound, the mass density (343.02 K, 15000 kPa, x2 = 0.05) was 714.6 ± 0.4 kg/m3, the mass density (343.02 K, 16000 kPa, x2 = 0.05) was 715.5 ± 0.4 kg/m3 and the mass density (343.02 K, 17000 kPa, x2 = 0.05) was 716.3 ± 0.4 kg/m3. It also gave a mass density (343.02 K, 18000 kPa, x2 = 0.05) of 717.1 ± 0.4 kg/m3, a mass density (343.02 K, 19000 kPa, x2 = 0.05) of 717.9 ± 0.4 kg/m3 and a mass density (343.02 K, 20000 kPa, x2 = 0.05) of 718.7 ± 0.4 kg/m3. For the same compound, the mass density (343.02 K, 21000 kPa, x2 = 0.05) was 719.5 ± 0.4 kg/m3, the mass density (343.02 K, 22001 kPa, x2 = 0.05) was 720.3 ± 0.4 kg/m3 and the mass density (343.02 K, 23000 kPa, x2 = 0.05) was 721.1 ± 0.4 kg/m3. For the same compound, the mass density (343.02 K, 24000 kPa, x2 = 0.05) was 721.8 ± 0.4 kg/m3, the mass density (343.02 K, 25000 kPa, x2 = 0.05) was 722.6 ± 0.4 kg/m3 and the mass density (343.03 K, 1000 kPa, x2 = 0.7482) was 662.4 ± 0.3 kg/m3. The mass density (343.03 K, 2000 kPa, x2 = 0.7482) was 663.6 ± 0.3 kg/m3, the mass density (343.03 K, 3000 kPa, x2 = 0.7482) was 664.9 ± 0.3 kg/m3 and the mass density (343.03 K, 4000 kPa, x2 = 0.7482) was 666.1 ± 0.3 kg/m3. For the same compound, the mass density (343.03 K, 5000 kPa, x2 = 0.7482) was 667.2 ± 0.3 kg/m3, the mass density (343.03 K, 6000 kPa, x2 = 0.7482) was 668.4 ± 0.3 kg/m3 and the mass density (343.03 K, 7000 kPa, x2 = 0.7482) was 669.5 ± 0.3 kg/m3. The mass density (343.03 K, 8000 kPa, x2 = 0.7482) was 670.6 ± 0.3 kg/m3, the mass density (343.03 K, 9000 kPa, x2 = 0.7482) was 671.7 ± 0.3 kg/m3 and the mass density (343.03 K, 10000 kPa, x2 = 0.7482) was 672.8 ± 0.3 kg/m3. For the same compound, the mass density (343.03 K, 11000 kPa, x2 = 0.7482) was 673.9 ± 0.4 kg/m3, the mass density (343.03 K, 12000 kPa, x2 = 0.7482) was 674.9 ± 0.4 kg/m3 and the mass density (343.03 K, 13000 kPa, x2 = 0.7482) was 675.9 ± 0.4 kg/m3. It also gave a mass density (343.03 K, 14000 kPa, x2 = 0.7482) of 677 ± 0.4 kg/m3, a mass density (343.03 K, 15000 kPa, x2 = 0.7482) of 678 ± 0.4 kg/m3 and a mass density (343.03 K, 16000 kPa, x2 = 0.7482) of 678.9 ± 0.4 kg/m3. For the same compound, the mass density (343.03 K, 17000 kPa, x2 = 0.7482) was 679.9 ± 0.4 kg/m3, the mass density (343.03 K, 18000 kPa, x2 = 0.7482) was 680.8 ± 0.4 kg/m3 and the mass density (343.03 K, 19000 kPa, x2 = 0.7482) was 681.8 ± 0.4 kg/m3.
